Data published in publication PMC8754645 (Nucleic Acids Research, 2021).

How the values were obtained:
PsrA = assay: isothermal titration calorimetry, one-site model; format: binding, Serratia; details: 50 mM PBS pH 7.4, 25°C; 30 μM PsrA titrated with 0.3 mM ligand; effector, no DNA
[1] = target: PsrA-His6 (His-tagged PsrA, LysR family transcriptional regulator of Serratia marcescens JNB5-1) (Serratia marcescens JNB5-1); assay: SEC

Kd (PsrA) [µM] | stoichiometry N [1] | Compound
13.6 | – | O=C(O)[C@@H]1CCCN1 [L-proline]
– | 4 | PsrA-His6 (His-tagged PsrA, LysR family transcriptional regulator of Serratia marcescens JNB5-1) (natural protein)
